Data as given in article PMC9743095 (Journal of Medicinal Chemistry, 2022).

What was measured:
Plasma stability [1] = format: in vitro ADME, beagle dog; conditions: dog plasma, with or without EHNA
Protocol: Plasma samples (10 mL of human, beagle dog, mouse, or rats from Sera laboratories, U.K.) were treated with and without 1 μM of EHNA, after which 20 μM concentration of each drug (3′dA and ProTides) was added and incubated for 2 h at 37 °C with 5% CO2. After incubation, 100 μL of each sample was taken and 300 μL of 100% methanol was added and left on ice for 30 min. After 30 min, the mixture was centrifuged (14 000 rpm, 4 °C, 10 min), and the supernatant was transferred to new tubes and evaporated under SpeedVac. Then, the dried extract was reconstituted in 100 μL of 10% acetonitrile, then transferred to LC-MS vials, and 10 μL was injected into the UPLC-MS/MS system.

Plasma stability [2] = format: in vitro ADME; conditions: for half-life at 24 h, 20 µM: human, plasma
Protocol: […] After incubation, 100 μL of each sample was taken and 300 μL of 100% methanol was added and left on ice for 30 min. After 30 min, the mixture was centrifuged (14 000 rpm, 4 °C, 10 min), and the supernatant was transferred to new tubes and evaporated under SpeedVac. Then, the dried extract was reconstituted in 100 μL of 10% acetonitrile, then transferred to LC-MS vials, and 10 μL was injected into the UPLC-MS/MS system.

[3] = tested on: CEM, K562, HL-60, and CRL cell lines; assay: Intracellular 3′-dATP quantification, cell lines together; format: cell-based, human
Protocol: HL-60 (ATCC CCL-240), K562 (ATCC CCL-243), CCRF-CEM (ATCC CRM-CCL-119), and RL (ATCC CRL-2261) leukemia cell lines were obtained from the American Type Culture Collection (ATCC), Middlesex. HL-60 and K562 cell lines are deoxynucleotidyl transferase-negative (TdT^–ve), whereas CCRF-CEM cell line is TdT^+ve. They were cultured in RPMI-1640 medium (Sigma-Aldrich, U.K.), which were supplemented with 10% fetal bovine serum (FBS) (PAA Laboratories), 1% amphotericin B (5.5 mL), and 1% penicillin/streptomycin (5.5 mL) (PAA Laboratories) and grown in flasks at 37 °C in an incubator with 5% CO2. […]
The analytes were resolved using an ultraperformance liquid chromatography system (Accela UPLC, Thermo Scientific, U.K.) equipped with a Biobasic A × 5 μm, 50 × 2.1 mm column (Thermo Electron Corporation, Murrieta, CA) and mobile phase consisting of a mixture of 10 mM NH4Ac in ACN/H2O (30:70 v/v), pH 6.0 (A), and 1 mM NH4Ac in ACN/H2O (30:70 v/v), pH 10.5 (B). […] Eluting compounds of interest were detected using a triple-stage quadrupole Vantage mass spectrometry system (Thermo Scientific, U.K.) equipped with an electrospray ion source. Samples were analyzed in the Multiple Reaction Monitoring, negative-ion modes at a spray voltage of 3000 V. Nitrogen was used as sheath and auxiliary gas at flow rates of 50 and 20 arbitrary units, respectively. […]

carboxypeptidase Y = molecular target: T1, carboxypeptidase Y (Saccharomyces cerevisiae, UniProt P00729); assay: Carboxypeptidase Y assay (31P NMR); format: in vitro ADME; conditions: acetone-d6/Trizma buffer pH 7.6, 31P NMR
T1 construct: purchased Sigma-Aldrich
Protocol: ProTides 7a (5 mg, ±0.008 mmol) was dissolved in 150 μL of acetone-d6, and 300 μL of trizma buffer (pH 7.6) was added. A ^31P NMR (202 MHz, 64–128 scans) was conducted at this stage as a reference (blank, t = 0). To this mixture, 130 μL of a stock solution of carboxypeptidase enzyme (purchased from Sigma-Aldrich, >50 unit/mg, dissolved in trizma buffer 7.6 pH to a concentration of 50 units/mL, EC 3.4.16.1) was added. ^31P NMR (128 scans) were carried out with 1 min of delay between experiments for 14 h at 25 °C.

[4] = tested on: advanced solid tumors or lymphoma; design: method as in PMID 34497073; conditions: preliminary findings, phase I/II trial; cited from earlier work

T1 sequence (P00729 112-532, species assumed): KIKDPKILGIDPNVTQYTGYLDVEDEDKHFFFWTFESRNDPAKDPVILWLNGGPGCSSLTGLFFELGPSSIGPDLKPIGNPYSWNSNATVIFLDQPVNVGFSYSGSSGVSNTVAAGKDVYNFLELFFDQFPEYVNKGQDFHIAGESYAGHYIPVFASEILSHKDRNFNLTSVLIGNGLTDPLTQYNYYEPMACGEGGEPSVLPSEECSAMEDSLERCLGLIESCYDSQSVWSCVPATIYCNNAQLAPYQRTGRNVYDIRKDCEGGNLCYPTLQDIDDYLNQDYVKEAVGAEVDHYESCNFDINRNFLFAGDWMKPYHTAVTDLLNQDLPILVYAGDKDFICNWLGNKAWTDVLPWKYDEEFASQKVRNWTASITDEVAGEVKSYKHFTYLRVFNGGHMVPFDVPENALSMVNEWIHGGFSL

SMILES	stability in plasma (Plasma stability [1])	remaining after 24 h (Plasma stability [2]; human plasma, with EHNA) [%]	time until completely metabolized (Plasma stability [2]; human plasma, without EHNA) [h]	half-life at 24 h, 20 µM (Plasma stability [2]; with EHNA) [min]	half-life at 24 h, 20 µM (Plasma stability [2]; without EHNA) [min]	effect of hENT1, AK, and ADA inhibitors on intracellular 3′-dATP levels [3]	concentration detected after 30 s of incubation (Plasma stability [2]; human plasma) [µg/mL]	change in plasma concentration (Plasma stability [2]; human plasma, up to 4 h)	time to complete conversion into aminoacyl phosphoramidate ester II (carboxypeptidase Y) [h]	anticancer activity [4]	tolerability [4]
Nc1ncnc2c1ncn2[C@@H]1O[C@H](CO)C[C@H]1O [3′-dA, 3′-Deoxyadenosine, reference compound]	like those found in human plasma	42.1	4	252	62	–	–	–	–	–	–
C[C@H](NP(=O)(OC[C@@H]1C[C@@H](O)[C@H](n2cnc3c(N)ncnc32)O1)Oc1ccccc1)C(=O)OCc1ccccc1 (stereo partly drawn) [Compound 7a, (Rp)- and (Sp)-3′-Deoxyadenosine 5′-O-phenyl-(benzoxy-L-alaninyl)-phosphate]	like those found in human plasma	–	–	–	–	did not affect	10	no change in plasma concentration	1	encouraging signals of anticancer activity	well tolerated
